According to publication doi:10.1101/2023.10.24.563163v2, “Targeting cancer with small molecule pan-KRAS degraders” (biorxiv, 2024):
Read-outs that look alike come from different tables or passages of the source.

Columns and labels:
KRAS^WT = biological target: T1, KRAS^WT (Homo sapiens, UniProt P01116); test: cell-based; set-up: KRAS degradation by capillary electrophoresis immunodetection
T1 construct: endogenous wild type
Experimental: Protein Detection by Capillary Electrophoresis Cells (50 000) were seeded the day before treatment into 96-well clear-flat bottom plates and incubated overnight (37 °C, humidified tissue culture incubator, 5% CO2). Compounds were added from DMSO stock solution using a digital dispenser and cells are incubated at 37 °C as specified (24 hours for KRAS degradation, 6 hours for determination of pERK levels). At the end of the incubation, medium was removed, cells washed with ice cold PBS, PBS removed and 50 µL lysis buffer (Meso Scale Discovery #R60TX-2) supplemented with 1:100 protease inhibitor solution, 1:100 phosphatase inhibitor I, 1:100 phosphatase inhibitor II (Meso Scale Discovery #R70AA-1), 0.5 µL/mL Benzonase (Novagen #70664-3) and 10 mM dithiothreitol added to each well. Plates with lysis buffer were immediately transferred to -80 °C freezer for at least 2 hours and then thawed on ice. Lysates were transferred to a 96 well V-bottom plate and insoluble debris was pelleted by centrifugation for 20 min. at 4 000 rpm. 40 µL of the supernatant were transferred to a fresh Eppendorf PCR plate. Analysis of protein levels was conducted using the Wes System, ProteinSimple (https://www.bio-techne.com/) as specified by the manufacturer. Briefly, Wes Master Mix (12-230 kDa WES Separation Module, 8 × 25 capillary cartridges, ProteinSimple #SM-W004) and molecular weight markers were prepared as specified in the manufacturer’s recommendations. To detect primary antibodies, anti-rabbit (Protein Simple #DM-001) or anti-mouse (Protein Simple #DM-002) detection modules were used. 7.2 µL lysate + 1.8 µL master mix were combined and heated to 95 °C for 5 min. […] Next, we set out to test the ability of a single pan-KRAS degrading molecule, compound 4, to selectively suppress oncogenic signaling and proliferation in cancer cell lines driven by diverse KRAS mutants. To this end, we first confirmed degradation of KRAS by compound 4 in KRAS-dependent (GP2d, SW620 and NCI-H358 expressing KRAS^G12D, - G12V or -G12C, respectively) as well as in KRAS independent (A-375, HEK293) cell lines (Fig. 3A, fig. S4A). […] Both inhibition and degradation repressed the established markers of MAPK signaling pERK (fig. S4B-D) and DUSP6 (Fig. 3B, fig. S4E) in KRAS dependent cell lines. […] Neither degradation nor inhibition had appreciable antiproliferative effects in the KRAS independent cell lines A-375 and HEK293 (Fig. 3C, fig. S4F).

NCI-H358 = test: cells; set-up: pERK levels by capillary electrophoresis; settings: Homo sapiens, NCI-H358, 6 h
Experimental: (§1) Protein Detection by Capillary Electrophoresis Cells (50 000) were seeded the day before treatment into 96-well clear-flat bottom plates and incubated overnight (37 °C, humidified tissue culture incubator, 5% CO2). Compounds were added from DMSO stock solution using a digital dispenser and cells are incubated at 37 °C as specified (24 hours for KRAS degradation, 6 hours for determination of pERK levels). At the end of the incubation, medium was removed, cells washed with ice cold PBS, PBS removed and 50 µL lysis buffer (Meso Scale Discovery #R60TX-2) supplemented with 1:100 protease inhibitor solution, 1:100 phosphatase inhibitor I, 1:100 phosphatase inhibitor II (Meso Scale Discovery #R70AA-1), 0.5 µL/mL Benzonase (Novagen #70664-3) and 10 mM dithiothreitol added to each well. Plates with lysis buffer were immediately transferred to -80 °C freezer for at least 2 hours and then thawed on ice. Lysates were transferred to a 96 well V-bottom plate and insoluble debris was pelleted by centrifugation for 20 min. at 4 000 rpm. 40 µL of the supernatant were transferred to a fresh Eppendorf PCR plate. Analysis of protein levels was conducted using the Wes System, ProteinSimple (https://www.bio-techne.com/) as specified by the manufacturer. Briefly, Wes Master Mix (12-230 kDa WES Separation Module, 8 × 25 capillary cartridges, ProteinSimple #SM-W004) and molecular weight markers were prepared as specified in the manufacturer’s recommendations. To detect primary antibodies, anti-rabbit (Protein Simple #DM-001) or anti-mouse (Protein Simple #DM-002) detection modules were used. 7.2 µL lysate + 1.8 µL master mix were combined and heated to 95 °C for 5 min. Th

HEK293 = test: cells; set-up: pERK levels by capillary electrophoresis; settings: Homo sapiens, HEK293, 6 h
Experimental: as §1

SW620 = test: cells; set-up: pERK levels by capillary electrophoresis; settings: Homo sapiens, SW-620, 6 h
Experimental: as §1

A375 = test: cells; set-up: pERK levels by capillary electrophoresis; settings: Homo sapiens, A-375, 6 h
Experimental: as §1

HiBiT-KRAS^G12D = biological target: T2, HiBiT-KRAS^G12D (Homo sapiens, UniProt P01116, G12D); set-up: HiBiT-KRAS degradation, split nanoluciferase lytic detection; settings: degrader
T2 construct: HiBiT-tagged
Experimental: This formula was derived from the Growth Inhibition (GI) calculation used in the National Cancer Institute’s NCI-60 high-throughput screen. KRAS Degradation Assays via Detection of Split Nanoluciferase (HiBiT) To assess PROTAC-mediated degradation of HiBiT-tagged KRAS constructs, cells were seeded at 25 000 cells per well in culture medium into white bottom opaque 96-well plates (Perkin Elmer cat no. 5680). Plates were incubated at 37 °C, 5% CO2 in a humidified incubator over night to allow the cells to adhere. Test compounds (10 mM stock in DMSO) were added at logarithmic dose series using the HP Digital Dispenser D300 (Tecan), normalizing for added DMSO. […] Following incubation, 100 µL per well Promega Nano-Glo HiBiT lytic detection reagent mix (Promega Nano-Glo HiBiT Lytic Detection System #N3050), prepared according to the manufacturer´s instructions in the kit, were added. To allow for adequate cell lysis, plates were incubated on an orbital shaker for 15 min. and further incubated 30 min. at room temperature. Upon completion of cell lysis, luminescence was measured using an Envision plate reader using the Ultrasensitive Luminescence Protocol for 96-well plates. Luminescence levels were normalized by the values obtained with DMSO-treated samples and plotted as percent of DMSO control. DC50 values were computed using a three parametric logistic model. Dmax values represent the maximal extent of degradation observed and are stated as percent of control treatments.

[1] = A-375, read-out: Dmax 24 h A375 [%]
[2] = HEK293, read-out: Dmax 24 h HEK293 [%]

T2 sequence (P01116 whole entry G12D): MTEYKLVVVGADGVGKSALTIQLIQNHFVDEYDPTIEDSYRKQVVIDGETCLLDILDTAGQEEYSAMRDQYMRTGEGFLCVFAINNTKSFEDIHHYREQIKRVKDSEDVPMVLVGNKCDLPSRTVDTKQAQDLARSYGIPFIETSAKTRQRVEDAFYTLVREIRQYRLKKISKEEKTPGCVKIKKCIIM
T1 sequence (P01116 whole entry): as the sequence (P01116 whole entry G12D) above, with D12G counted along it

Structure (SMILES) | Dmax (KRAS^WT; [1]) | Dmax (KRAS^WT; [2]) | IC50 (NCI-H358) | IC50 (SW620) | IC50 (A375) | DC50 (HiBiT-KRAS^G12D; 10% human serum, read-out: DC50 24 h GP5d HiBiT 10% human serum) | DC50 (HiBiT-KRAS^G12D; 10% mouse serum, read-out: DC50 24 h GP5d HiBiT 10% mouse serum) | DC50 (HiBiT-KRAS^G12D; read-out: DC50 24 h GP5d HiBiT) | IC50 (HEK293)
Cc1ncsc1-c1ccc(CNC(=O)C2CC(O)CN2C(=O)C(c2cc(OCCCCN3CCCN(c4nccc(-c5noc(C6(C)CCCc7sc(N)c(C#N)c76)n5)n4)C(C)C3)no2)C(C)C)cc1 (centres unmarked) [compound 5] | < 15% | < 20% | > 1000 nM | > 1000 nM | > 1000 nM | – | – | – | > 1000 nM
Cc1ncsc1-c1ccc([C@H](CO)NC(=O)[C@@H]2C[C@@H](O)CN2C(=O)[C@H](C(C)C)n2cc(OCCCCN3CCCN(c4nccc(-c5noc([C@@]6(C)CCCc7sc(N)c(C#N)c76)n5)n4)[C@@H](C)C3)nn2)cc1 [compound 7, ACBI3] | – | – | – | – | – | – | – | 0.7 nM | –

The next lines start with results.

Dmax (KRAS^WT; [1]) | Dmax (KRAS^WT; [2]) | IC50 (NCI-H358) | IC50 (SW620) | IC50 (A375) | DC50 (HiBiT-KRAS^G12D; 10% human serum, read-out: DC50 24 h GP5d HiBiT 10% human serum) | DC50 (HiBiT-KRAS^G12D; 10% mouse serum, read-out: DC50 24 h GP5d HiBiT 10% mouse serum) | DC50 (HiBiT-KRAS^G12D; read-out: DC50 24 h GP5d HiBiT) | Structure (SMILES) | IC50 (HEK293)
100% | – | 8.2 nM | 9.2 nM | > 1000 nM | 1.9 nM | 33.1 nM | 1.4 nM | Cc1ncsc1-c1ccc(CNC(=O)[C@@H]2C[C@@H](O)CN2C(=O)[C@@H](c2cc(OCCCCN3CCCN(c4nccc(-c5noc([C@@]6(C)CCCc7sc(N)c(C#N)c76)n5)n4)[C@@H](C)C3)no2)C(C)C)cc1 [compound 4] | > 1000 nM
76% | 48% | > 1000 nM | 708 nM | > 1000 nM | – | – | 68.1 nM | Cc1ncsc1-c1ccc(CNC(=O)[C@@H]2C[C@@H](O)CN2C(=O)[C@@H](NC(=O)CCCCCN2CCCN(c3nccc(-c4noc([C@@]5(C)CCCc6sc(N)c(C#N)c65)n4)n3)[C@@H](C)C2)C(C)(C)C)cc1 [compound 3] | > 1000 nM
– | – | – | – | – | – | – | 494 nM | Cc1ncsc1-c1ccc(CNC(=O)[C@@H]2C[C@@H](O)CN2C(=O)[C@@H](NC(=O)COCCCN2CCCN(c3nccc(-c4noc([C@@]5(C)CCCc6sc(N)c(C#N)c65)n4)n3)[C@@H](C)C2)C(C)(C)C)cc1 [compound 2] | –
